Paper PMC7463651, “Phase I/Ib Study of Tenalisib (RP6530), a Dual PI3K δ/γ Inhibitor in Patients with Relapsed/Refractory T-Cell Lymphoma” (Cancers, 2020)
Several values for one entry are separate records, joined by “and”; a condition that tells them apart may be missing. Identical values can stand only once.

What was measured:
[1] = test system: relapsed/refractory CTCL; assay: Efficacy assessment (ORR, DoR), CTCL patients; assay type: in vivo, human; settings: for Median DoR (95% CI) / ORR (95% CI): CTCL
Method: (§1) Efficacy assessments included radiological, bone marrow biopsy/aspiration and skin assessments. In some cases, bone marrow disease alone was used for disease assessment. In these cases, response was reported as CR or non-CR.
(§2) In CTCL patients, assessment of skin lesions was performed at screening, Day 1 of Cycle 3 and 5, approximately 12 weeks thereafter and at the end of treatment (EOT). Skin photographs were obtained for half body global and up to 5 selected representative index lesions at baseline, at Day 1 of Cycle 3, EOT, at PR/CR/progressive disease (PD) and as required as per the discretion of the Investigator. In case of nodal involvement, radiological assessment was performed at screening, Day 1 of Cycle 3 and 5 and approximately 12 weeks thereafter. Skin biopsy was performed from the most indurated area at screening, on C3D1 and to confirm a CR.
(§3) The efficacy parameters included ORR and DoR. Revised Response Criteria for Malignant Lymphoma (Cheson 2007) was used for evaluation of PTCL [21]. International Society for Cutaneous Lymphomas Response Criteria for Mycosis Fungoides and Sezary Syndrome (SS) and Cutaneous Lymphoma Task Force of the European Organization for Research and Treatment of Cancer criteria were used for evaluation of CTCL patients. For skin scoring, the modified Severity Weighted Assessment Tool was used. For local index lesion skin scoring, the Composite Assessment of Index Lesion Severity was used.

[2] = test system: malignant patient derived primary CTCL cells; parameters: method as in ref 18 = [18]; 18. Mao G. Viswanadha S. Rhizen, Switzerland Unpublished work 2013; settings: cited from earlier work
[3] = test system: T-cell leukemia xenograft; parameters: method as in ref 18 = [18]; 18. Mao G. Viswanadha S. Rhizen, Switzerland Unpublished work 2013; settings: cited from earlier work
[4] = test system: PI3K δ/γ; settings: cited from earlier work
[5] = test system: patient-derived primary cell lines representative of B and T lymphoma cell lines; parameters: method as in doi:10.1182/blood.V122.21.4418.4418; settings: cited from earlier work
[6] = test system: relapsed/refractory T-cell lymphoma (PTCL and CTCL); assay: Efficacy assessment (ORR, DoR), all evaluable patients; assay type: in vivo, human; settings: for Median DoR (95% CI) / ORR (95% CI): All
Method: as §1
In PTCL patients, radiological assessment was performed at screening, Day 1 of Cycle 3 and 5 and approximately 12 weeks thereafter. Assessments of skin lesions in PTCL patients were performed, if applicable. Bone marrow biopsy/aspirate was performed in patients without measurable but assessable disease at screening and on Day 1 of Cycle 3 and 5, then also approximately 12 weeks thereafter to confirm a CR.
as §2, §3

[7] = test system: patients; settings: cumulative safety data across two studies; cited from earlier work
[8] = Dose Escalation 800 mg Fasting, N = 2
[9] = Dose Escalation 800 mg Fed, N = 4
[10] = Dose Expansion 800 mg Fasting, N = 12
[11] = Dose Escalation 800 mg Fasting, N = 3
[12] = Dose Escalation 800 mg Fed, N = 5
[13] = Dose Expansion 800 mg Fasting, N = 22

CC[C@H](Nc1ncnc2[nH]cnc12)c1oc2ccccc2c(=O)c1-c1cccc(F)c1 [Tenalisib]
Partial response (PR), number of patients ([1]; CTCL patients): 9 patients
Median DoR (95% CI) ([1]; Cumulative Total, N = 20): 3.8 months and 3.8 (2.3, 12.8) months
ORR (95% CI) ([1]; Cumulative Total, N = 20): 45% and 45.0 (23.1, 68.5) %
ORR (95% CI) ([1]; Dose Escalation 200 mg, N = 1): 0.0 (0.0, 97.5) %
Median DoR (95% CI) ([1]; Dose Escalation 400 mg, N = 1): 3.8 (-,-) months
ORR (95% CI) ([1]; Dose Escalation 400 mg, N = 1): 100.0 (2.5, 100.0) %
Median DoR (95% CI) [1, 8]: 2.3 (-,-) months
ORR (95% CI) [1, 8]: 50.0 (1.3, 98.7) %
Median DoR (95% CI) [1, 9]: 3.3 (1.7, 4.9) months
ORR (95% CI) [1, 9]: 50.0 (6.8, 93.2) %
Median DoR (95% CI) ([1]; Dose Escalation Total, N = 8): 3.05 (1.7, 4.6) months
ORR (95% CI) ([1]; Dose Escalation Total, N = 8): 50.0 (15.7, 84.3) %
Median DoR (95% CI) [1, 10]: 10.3 (2.6, 19.6) months
ORR (95% CI) [1, 10]: 41.7 (15.2, 72.3) %
Ex-vivo activity [2]: shown ex-vivo activity
Efficacy in xenograft model [3]: demonstrated efficacy
Inhibitory potency ([4]; PI3K δ/γ): nanomolar
Selectivity over α and β PI3K isoforms [4]: several fold
Apoptotic and anti-proliferative activity [5]: demonstrated apoptotic and anti-proliferative activity
Complete response (CR), number of patients ([6]; 35 evaluable patients): 3 patients
Partial response (PR) ([6]; 35 evaluable patients): 13 n (%) and 13 (37%) n (%)
Progressive disease (PD) ([6]; 35 evaluable patients): 8 (22.9%) n (%)
Complete response (CR) ([6]; 35 evaluable patients, three patients): 9%
Median DoR (95% CI) ([6]; Cumulative Total, N = 35): 4.9 months and 4.9 (4.3, 12.0) months
ORR (95% CI) ([6]; Cumulative Total, N = 35): 45.7% and 45.7 (28.8, 63.4) %
Median DoR (95% CI) ([6]; Dose Escalation 200 mg, N = 3): 4.9 (-,-) months
ORR (95% CI) ([6]; Dose Escalation 200 mg, N = 3): 33.3 (0.8, 90.6) %
Median DoR (95% CI) ([6]; Dose Escalation 400 mg, N = 2): 2.4 (0.97, 3.8) months
ORR (95% CI) ([6]; Dose Escalation 400 mg, N = 2): 100.0 (15.8, 100.0) %
Median DoR (95% CI) [6, 11]: 10.9 (2.3, 19.5) months
ORR (95% CI) [6, 11]: 66.7 (9.4, 99.2) %
Median DoR (95% CI) [6, 12]: 3.3 (1.7, 4.9) months
ORR (95% CI) [6, 12]: 40.0 (5.3, 85.3) %
Median DoR (95% CI) ([6]; Dose Escalation Total, N = 13): 3.8 (0.7, 10.2) months
ORR (95% CI) ([6]; Dose Escalation Total, N = 13): 53.8 (25.1, 80.8) %
Median DoR (95% CI) [6, 13]: 7.5 (4.7, 15.9) months
ORR (95% CI) [6, 13]: 40.9 (20.7, 63.6) %
Patients who responded ([6]; out of 35 evaluable patients): 16 patients
Time of response ([6]; responders): Most of the patients responded at Cycle 3 Day 1
Colitis and pneumonitis events [7]: no events of colitis and pneumonitis
Transaminitis incidence [7]: 10%
